{"source": "patent US20180153990A1", "about": "“PCA1 PROTEIN AND METHODS OF TREATING PNEUMOCYSTIS PNEUMONIA INFECTION” (priority 2016, published 2018)", "key": {"Pneumocystis": {"test_system": "Pneumocystis", "assay": "Pcp-IRIS model: physiologic assessment (body weight, lung compliance, lung resistance)", "type": "in vivo, SCID mice", "settings": "treatment started when mice showed clinical signs of Pcp-IRIS", "description": "Severe combined immune deficient (SCID) mice on a C.B-17 background are maintained in a specific pathogen-free colony at University of Rochester Medical Center. For these studies, 6-8 week old female mice were infected with Pneumocystis by intratracheal inoculation with 1×10^5 Pneumocystis cysts and then also cohoused with other Pneumocystis-infected SCID mice to ensure infection. The mice were fed acidified water and sterile food. Immune reconstitution (IR) was initiated three weeks after infection by giving mice an intraperitoneal (i.p.) injection of 5×10^7 splenocytes from wild-type C.B-17 mice. All animals involved were treated ethically according to the guidelines from the Association for Assessment and Accreditation of Laboratory Care International (AAALAC International), and the protocols used were approved by the University Committee on Animal Resources.\nLung resistance and compliance were measured on living ventilated mice using a Harvard rodent ventilator (Harvard Apparatus, Southnatic, Mass.) and a whole body plethysmograph (BUXCO Electronics Inc., Wilmington, N.C.) as previously described (Wang et al., “Immune Modulation With Sulfasalazine Attenuates Immunopathogenesis but Enhances Macrophage-Mediated Fungal Clearance During Pneumocystis Pneumonia,” PLoS Pathog. 6:e1001058 (2010), which is hereby incorporated by reference in its entirety). […]"}, "alveolar macrophages": {"test_system": "alveolar macrophages", "assay": "Effect of antibody administration during Pcp on alveolar macrophage phenotype (iNOS M1 / YM-1 M2 staining)", "type": "in vivo, SCID mice", "procedure": "For this experiment the Pneumocystis-infected mice were treated as above except that they received only 2 doses of specific antibody, nonspecific antibody or sulfasalazine on days 1 and 3 and then sacrificed later in the day on day 3. BALF aliquots containing 5×10^4 cells in HBSS were cytospun onto glass slides, fixed with 3% paraformaldehyde in PBS for 15 minutes at room temperature; rinsed 3× in PBS; and permeabilized with 0.02% Triton X-100 in PBS for 15 minutes at room temperature. The slides were then rinsed 3× in PBS, blocked with species specific 5% normal serum (normal goat serum, MP Biomedical; normal donkey serum, EMD Millipore) in 0.05% Tween-20 in PBS (PBS-T) for 1 hr at room temperature and rinsed 3× in PBS-T. Alveolar macrophages were identified by staining with fluorescein labeled primary antibody to CD11c. Staining with antibody to iNOS was used to identify M1 macrophages while staining with antibody to YM-1 was considered a marker for M2 macrophages (Abcam and Stemcell).\nTo test the effect of immune modulation, by administration of sulfasalazine or passive immunization, on macrophage phenotype during response to Pneumocystis, these agents or control nonspecific antibody were administered and alveolar macrophages were harvested after 3 days."}}, "data": [{"compound": "O=C(O)c1cc(/N=N/c2ccc(S(=O)(=O)Nc3ccccn3)cc2)ccc1O", "note": "[SSZ, sulfasalazine]", "values": [{"measurement": "severity of Pcp (recovery of body weight, pulmonary function)", "setting": "Pneumocystis", "result": "reduced severity of Pcp"}, {"measurement": "M1 phenotype alveolar macrophages", "setting": "alveolar macrophages; Treatment Day 3", "result": "200 per 300 macrophages counted"}, {"measurement": "M2 phenotype alveolar macrophages", "setting": "alveolar macrophages; Treatment Day 3", "result": "100 per 300 macrophages counted"}, {"measurement": "proportion of M2 type macrophages in the alveolar space", "setting": "alveolar macrophages; after 3 days", "result": "increase"}]}]}
